The values that follow come from the supplement of paper PMC8498969.

Assay [1] has as its system HEK293. Put plainly: IC50 for inhibition of ZIKV NS1 production. The procedure: (§1)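 HEK293 cells in 1536-well plates were pre-treated with compound for 1 h, infected with ZIKV (MOI 1) for 24 h, and NS1 antigen (intra- plus extracellular) was measured by TR-FRET. Confirmation used 11-point 1:3 dilutions, and IC50 and maximal inhibition were fitted in GraphPad Prism.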
Assay [2] relates to HEK293. Kind of assay: cytotoxicity IC50 (ATP content, uninfected cells); higher = less cytotoxic. The conditions noted are these: infection: none.
Assay [3] has as its system HEK293. Put plainly: maximal inhibition of ZIKV NS1 production (% inhibition); higher = stronger antiviral effect. The procedure:
as §1

As for `O=c1[nH]c(=O)n([C@H]2C[C@H](O)[C@@H](CO)O2)cc1F`, the IC50 in the assay with HEK293 [1] was determined as 920 nM. Moreover, the “cytotoxicity IC50” value in the assay with HEK293 [2] came out at 60000 nM. Further, the maximal inhibition with HEK293 [3] was determined as 98.

Turning to `CO[C@@H]1[C@@H](OC)[C@H](C)[C@@](O)(CC(=O)O)O[C@H]1[C@H](C)[C@H]1O[C@@]2(CC[C@@](C)([C@H]3CC[C@@](C)([C@@H]4O[C@@H]([C@H]5O[C@](C)(O)[C@H](C)C[C@@H]5C)C[C@@H]4O[C@@H]4C[C@H](OC)[C@@H](OC)[C@H](C)O4)O3)O2)C[C@H](O)[C@H]1C`, in the assay on HEK293 [1], the IC50 came to 1400 nM. In addition, the “cytotoxicity IC50” value in the assay with HEK293 [2] is 1500 nM. Also, in the assay with HEK293 [3], the maximal inhibition is 100.

`OC(c1cc(C(F)(F)F)nc2c(C(F)(F)F)cccc12)C1CCCCN1` (stereo not drawn) returned an IC50 in the assay on HEK293 [1] of 18000 nM. Also, the “cytotoxicity IC50” value with HEK293 [2] was over 100000 nM. Moreover, the maximal inhibition with HEK293 [3] is 97.

`CNc1ccc2oc(C[C@H]3O[C@@]4(CC[C@H]3C)O[C@H]([C@H](C)C(=O)c3ccc[nH]3)[C@H](C)C[C@H]4C)nc2c1C(=O)O` gave a concentration for half-maximal inhibition (IC50) in the assay on HEK293 [1] of 6200 nM. Besides, in the assay with HEK293 [2], the “cytotoxicity IC50” value was determined as 20000 nM. In the assay on HEK293 [3], this compound came in with a maximal inhibition of 96.

Compound `Cc1nc(N)nc(N)c1-c1ccc(Cl)c(Cl)c1` showed a half-maximal inhibitory concentration (IC50) in the assay with HEK293 [1] of 2000 nM. In addition, the “cytotoxicity IC50” value with HEK293 [2] worked out at 1500 nM. The same compound registered a maximal inhibition in the assay with HEK293 [3] of 102.

On to `CCC[C@H](Nc1nc(-c2ccc(NC(=O)NCC)c(OC)c2)ncc1C)c1cccnc1`, for which the half-inhibitory concentration (IC50) with HEK293 [1] is 170 nM. The “cytotoxicity IC50” value in the assay with HEK293 [2] was over 100000 nM. The compound further registered a maximal inhibition in the assay with HEK293 [3] of 72.

In the assay on HEK293 [1], `O=C1NCCc2[nH]c(-c3ccncc3)cc21` came in with an IC50 of 20000 nM. For the same compound, the “cytotoxicity IC50” value with HEK293 [2] is over 100000 nM. Further, in the assay on HEK293 [3], the maximal inhibition was determined as 85.

`CC(C)C[C@H](NC(=O)[C@H](CCc1ccccc1)NC(=O)CN1CCOCC1)C(=O)N[C@@H](Cc1ccccc1)C(=O)N[C@@H](CC(C)C)C(=O)[C@@]1(C)CO1` showed a half-inhibitory concentration (IC50) in the assay on HEK293 [1] of 160 nM. Further, the “cytotoxicity IC50” value with HEK293 [2] turned out to be 320 nM. The maximal inhibition with HEK293 [3] was 90.

As to `CC[C@H]1CN2CCc3cc(OC)c(OC)cc3[C@@H]2C[C@@H]1C[C@H]1NCCc2cc(OC)c(OC)cc21`, the IC50 in the assay on HEK293 [1] came out at 110 nM. In addition, the “cytotoxicity IC50” value with HEK293 [2] was over 100000 nM. This compound registered a maximal inhibition with HEK293 [3] of 103.

As for `Cc1c(N)nc([C@H](CC(N)=O)NC[C@@H](N)C(N)=O)nc1C(=O)N[C@H](C(=O)N[C@@H](C)[C@H](O)[C@@H](C)C(=O)N[C@@H](C(=O)NCCc1nc(-c2nc(C(=O)NCCC[S+](C)C)cs2)cs1)[C@@H](C)O)C(O[C@H]1O[C@H](CO)[C@H](O)[C@@H](O)[C@H]1O[C@H]1O[C@H](CO)[C@@H](O)[C@H](OC(N)=O)[C@@H]1O)c1cnc[nH]1` (stereo partly drawn), the concentration for half-maximal inhibition (IC50) in the assay on HEK293 [1] is 6300 nM. Also, the “cytotoxicity IC50” value with HEK293 [2] is over 100000 nM. The same compound showed a maximal inhibition in the assay on HEK293 [3] of 103.

Turning to `Cc1cnc(NC(=O)Nc2cc(Br)c(C)cc2OC[C@@H]2CNCCO2)cn1`, the concentration for half-maximal inhibition (IC50) with HEK293 [1] came to 1700 nM. For the same compound, in the assay on HEK293 [2], the “cytotoxicity IC50” value was over 100000 nM. Besides, the maximal inhibition in the assay with HEK293 [3] worked out at 101.

Turning to `C[C@@H]1O[C@@H](O[C@H]2C[C@@H](O)[C@]3(CO)[C@H]4[C@H](O)C[C@]5(C)[C@@H](C6=CC(=O)OC6)CC[C@]5(O)[C@@H]4CC[C@]3(O)C2)[C@H](O)[C@H](O)[C@H]1O`, the concentration for half-maximal inhibition (IC50) in the assay with HEK293 [1] is 170 nM. The “cytotoxicity IC50” value with HEK293 [2] worked out at 190 nM. In the assay on HEK293 [3], this compound registered a maximal inhibition of 102.

In the assay on HEK293 [1], `CC(=O)[C@]1(O)Cc2c(O)c3c(c(O)c2[C@@H](O[C@H]2C[C@H](N)[C@H](O)[C@H](C)O2)C1)C(=O)c1ccccc1C3=O` returned an IC50 of 170 nM. In the assay on HEK293 [2], the “cytotoxicity IC50” value is over 100000 nM. Also, the maximal inhibition with HEK293 [3] came to 86.

As for `CN(Cc1cnc2nc(N)nc(N)c2n1)c1ccc(C(=O)N[C@@H](CCC(=O)O)C(=O)O)cc1`, in the assay on HEK293 [1], the half-maximal inhibitory concentration (IC50) was 460 nM. Moreover, the “cytotoxicity IC50” value with HEK293 [2] was determined as 240 nM. In addition, in the assay with HEK293 [3], the maximal inhibition came out at 95.

For the compound `CN[C@@H]1C[C@H]2O[C@@](C)([C@@H]1OC)n1c3ccccc3c3c4c(c5c6ccccc6n2c5c31)C(=O)N[C@H]4O`, the 50% inhibitory concentration (IC50) in the assay on HEK293 [1] was found to be 760 nM. Further, in the assay with HEK293 [2], the “cytotoxicity IC50” value amounted to 100000 nM. Moreover, in the assay on HEK293 [3], the maximal inhibition was found to be 96.

As for `O=C(O)c1ccc2cc(-c3ccc(O)c(C45CC6CC(CC(C6)C4)C5)c3)ccc2c1`, the IC50 with HEK293 [1] stood at 1700 nM. In addition, the “cytotoxicity IC50” value with HEK293 [2] worked out at 45000 nM. The compound further came in with a maximal inhibition with HEK293 [3] of 97.

`C1CCC(C(CC2CCCCN2)C2CCCCC2)CC1` (stereo not drawn) gave an IC50 in the assay with HEK293 [1] of 45000 nM. Besides, the “cytotoxicity IC50” value in the assay with HEK293 [2] was 50000 nM. The compound further displayed a maximal inhibition with HEK293 [3] of 98.

For `COc1c(C)c2c(c(O)c1C/C=C(\C)CCC(=O)O)C(=O)OC2`, in the assay with HEK293 [1], the IC50 was 540 nM. Besides, the “cytotoxicity IC50” value in the assay on HEK293 [2] is over 100000 nM. In the assay on HEK293 [3], this compound displayed a maximal inhibition of 106.

The compound `C[n+]1cc2c3c(ccc2c2ccc4cc5c(cc4c21)OCO5)OCO3` showed an IC50 in the assay with HEK293 [1] of 2900 nM. Further, the “cytotoxicity IC50” value in the assay on HEK293 [2] came to 6400 nM. The same compound registered a maximal inhibition in the assay with HEK293 [3] of 96.

In the assay on HEK293 [1], `COCC[n+]1c2c(n(Cc3cnccn3)c1C)C(=O)c1ccccc1C2=O` gave an IC50 of 18 nM. Moreover, the “cytotoxicity IC50” value with HEK293 [2] is 30 nM. The maximal inhibition in the assay on HEK293 [3] was 104.

In turn, `CC1(C(=O)O)C2CCC(O2)C1(C)C(=O)O` (stereo not drawn) showed an IC50 in the assay on HEK293 [1] of 2600 nM. Moreover, the “cytotoxicity IC50” value in the assay with HEK293 [2] is over 100000 nM. The maximal inhibition in the assay with HEK293 [3] was 105.

In general, IC50 refers to the concentration needed to halve the response being measured.
